Key:
[1] = test system: hrtAB-driven expression of the xylE reporter gene; assay: XylE reporter assay (hrtAB promoter-xylE), Newman; type: cell-based, Staphylococcus aureus; settings: for XylE (0.05): level of XylE induction at 0.05 uM of the compound; for XylE (0.5): level of XylE induction at 0.5 uM of the compound; for XylE (5.0): level of XylE induction at 5.0 uM of the compound; for XylE (50.0): level of XylE induction at 50.0 uM of the compound
Procedure, shortened: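 S. aureus carrying hrtAB promoter-xylE fusion in pOS1 grown O/N at 37° C in TSB with chloramphenicol, lysed with lysostaphin. Lysate XylE activity read as 2-hydroxymuconic semialdehyde formation from 0.2 mM pyrocatechol (A375, every minute for 30 minutes), normalised to BCA protein; unit = 1 nmol/min/mg at 30° C.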

[2] = test system: HssRS-dependent hrtAB expression; assay: Luminescence-based assay to monitor HssRS-dependent hrtAB expression (phrtABlux reporter), Newman; type: cell-based, Staphylococcus aureus; settings: for activation at 0.0825 µM: Staphylococcus aureus, NEWMAN, read-out: % Lumi, luminescence induced by the compound compared to the heme control (82.5 nM) in the same plate; for activation at 0.0825 µM / Luminescence: Newman; for Luminescence: raw luminescence value obtained in a luminometer
Procedure, shortened: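 S. aureus Newman wild type or ΔhssR carrying a hrtAB promoter–luxCDABE reporter (phrtABlux), grown in TSB with 10 μg/ml chloramphenicol at 37 °C. Light output read against 82.5 nM heme as the in-plate positive control. Activity given as % of heme-induced luminescence.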

[3] = test system: response regulator HssR; assay: HssR dependence of XylE inducing activity, Newman; type: cell-based, Staphylococcus aureus; settings: whether XylE inducing activity requires HssR
Procedure: With reference to Table 1, “Luminescence” refers to the raw luminescence value obtained in a luminomter. “Control (82.5 nm)” refers to the luminescence value obtained from heme at 82.5 nM as a positive control in the same plate as the experimental. “% lum” is the percentage of luminescence induced by the compound as compared to the heme control in the same plate. […] All of these assays are described in the application. […] “N/T” indicates the test was not performed. […]
S. aureus strains harboring the appropriate reporter construct were inoculated into 500 μl of TSB containing 10 μg/ml chloramphenicol in 1.5 ml tubes. Cultures were grown O/N at 37° C. with shaking. Bacteria were pelleted by centrifugation and spent medium was aspirated. The pellet was washed once with 500 μl of 20 mM potassium phosphate, pH 7.6, and resuspended in 150 μl of 100 mM potassium phosphate buffer, pH 8.0, 10% (v/v) acetone, 25 μg/ml lysostaphin. After 20 minute incubation at 37° C. and 5 minute incubation on ice, samples were centrifuged at 20,000 g for 30 minutes at 4° C. 1-10 μl of supernatant was added to a 96-well plate and 200 μl of 100 mM potassium phosphate, pH 8.0, 0.2 mM pyrocatechol was added to each well. Formation of 2-hydroxymuconic semialdehyde was tracked by measuring the absorbance at 375 nm every minute for 30 minutes on a Varian MP 50 microplate reader. Protein concentration in samples was determined by BCA (Pierce). One unit of specific activity of XylE in a sample is defined as the formation of 1 nmol of 2-hydroxymuconic semialdehyde per minute per milligram of cellular protein at 30° C. (Chien, Y., Manna, A. C., Projan, S. J., and Cheung, A. L. 1999, “SarA, a global regulator of virulence determinants in Staphylococcus aureus, binds to a conserved motif essential for sar-dependent gene regulation. J. Biol. Chem. 274, 37169-37176).

[4] = test system: response regulator HssR; assay: HssR dependence, Stern test; type: cell-based
Procedure: (§1) Methods for obtaining the data shown in Tables 1 and 2 are described herein.
(§2) With reference to Table 1, “Luminescence” refers to the raw luminescence value obtained in a luminomter. “Control (82.5 nm)” refers to the luminescence value obtained from heme at 82.5 nM as a positive control in the same plate as the experimental. “% lum” is the percentage of luminescence induced by the compound as compared to the heme control in the same plate. […] All of these assays are described in the application. […] “N/T” indicates the test was not performed.

[5] = test system: Stern; assay: Heme adaptation, Stern test; type: cell-based
Procedure: as §1, §2

[6] = Solubility of heme in solution; type: physicochemical; settings: concentrations above this are insoluble

Row | SMILES | XylE (0.05) [1] | XylE (0.5) [1] | XylE (5.0) [1] | XylE (50.0) [1] | activation at 0.0825 µM [2] [%] | Luminescence [2] | HssR Dep [3] | HssR Dep [4] | Heme Adapt [5] | light production on solid medium ([2]; S. aureus containing phrtABlux, solid medium without or with 4 μM heme) | luminescence in liquid media ([2]; S. aureus wildtype containing phrtABlux, liquid media with or without heme) | increase in luminescence ([2]; exposure of S. aureus to 3 μM heme, preliminary results) [fold] | increase in luminescence over negative control strains ([2]; heme-exposed wildtype harboring phrtABlux vs wildtype plux and ΔhssR phrtABlux, preliminary results) [fold] | soluble concentration in solution [6] [µM]
1 | CC1=NN(c2ccccc2)C(=O)/C1=N\Nc1ccccc1O | 0.07 | 0.05 | 0.2 | 1 | 60.3 | 1848 | − |  |  |  |  |  |  | 
2 | CCOC(=O)c1c(NC(=O)c2ccccc2)sc(C(C)=O)c1-c1ccccc1 | 0.03 | 1 | 0.3 | 0.08 | 109 | 312 | − |  |  |  |  |  |  | 
3 | O=C(Nc1ccc(NC(=O)c2cccs2)c(Cl)c1)c1cccs1 | 0.05 | 0.05 | 0.9 | 0.06 | 111 | 406 | − |  |  |  |  |  |  | 
4 | Brc1ccc(-c2nc(NCc3ccccc3)c3ccccc3n2)cc1 | 1 | 1 | 0.5 | 0.2 |  | 4302 | − |  |  |  |  |  |  | 
5 | COc1ccc(CCNC(=O)C(=O)Nc2cccc(Cl)c2)cc1OC | 1 | 0.5 | 0.8 | 5 | 355 | 2830 | − |  |  |  |  |  |  | 
6 | O=c1c2ccccc2nc(/C=C\c2ccccc2Cl)n1-c1ccccc1O | 0.08 | 1 | 50 | 1 |  | 6843 | + |  |  |  |  |  |  | 
7 | O=C(O)C1CSC(c2cccnc2)=N1 (centres unmarked) | 1 | 1 | 1 | 3 |  | 2360 | − |  |  |  |  |  |  | 
8 | Cc1ccc(-c2nnc(SCC(=O)NC3CCCC3)nc2-c2ccc(C)cc2)cc1 |  | 1 | 0.5 | 0.04 | 855 | 1658 | − |  |  |  |  |  |  | 
9 | c1ccc(-c2ccc(CSc3nc4ccccc4[nH]3)cc2)cc1 |  | 0.03 | 0.08 | 11 |  | 1822 | + |  |  |  |  |  |  | 
10 | CC(C)CSc1nnc(-c2ccccc2)c(-c2ccccc2)n1 |  | 0.04 | 0.07 | 1 | 383 | 1706 | + |  |  |  |  |  |  | 
11 | COC(NC(=O)Nc1nc2ccccc2s1)(C(F)(F)F)C(F)(F)F |  | 4 | 0.04 | 7 | 280 | 1747 | − |  |  |  |  |  |  | 
12 | Cc1ccc(CSCc2ccc(C(=O)NCc3ccc(F)cc3)o2)cc1 |  | 0 | 3 | 5 | 198 | 1653 | + |  |  |  |  |  |  | 
13 | Cc1nc(Nc2ccc(Oc3ccccc3)cc2)c2c(C)c(C)sc2n1 |  | 0.6 | 0.09 | 0 |  | 1627 | − |  |  |  |  |  |  | 
14 | O=C(NC(=S)Nc1ccc(-c2nc3ccccc3s2)cc1)c1ccccc1[N+](=O)[O-] [drawing 23] | 0.09 | 0.07 | 0.08 | 0.2 | 374 | 1794 |  |  |  |  |  |  |  | 
15 | COc1ccc(Br)cc1C(=O)NC(=S)Nc1cc(C)c(C)cc1O [drawing 24] | 0.07 | 0.3 | 0.09 | 0.3 | 227 | 946 |  |  |  |  |  |  |  | 
16 | Cc1cccc(C(=O)Nc2ccc(-c3nc4ccccc4o3)cc2)c1 [drawing 27] | 0.07 | 0.09 | 0.08 | 0.2 | 294 | 837 |  |  |  |  |  |  |  | 
17 | CCCN1C(=O)/C(=C2/C(=O)N(CC(=O)Nc3ccc(Cl)cc3)c3ccccc32)SC1=S [drawing 28] | 1 | 0.06 | 0.07 | 0.02 |  | 1600 | − |  |  |  |  |  |  | 
18 | Cc1ccc(O)c(NC(=O)c2nn3c(c2Br)NC(c2ccco2)CC3C(F)(F)F)c1 (centres unmarked) [drawing 60] | 0.07 | 0.7 | 11 | 1 |  | 1949 |  |  |  |  |  |  |  | 
19 | O=C(NC(=S)Nc1ccc(-c2nc3ccccc3s2)cc1)c1ccccc1[N+](=O)[O-] [drawing 61] | 0.1 | 0.7 | 0.8 | 0.8 |  | 1794 |  |  |  |  |  |  |  | 
20 | Oc1c(-c2cc(-c3ccco3)[nH]n2)ccc2ccccc12 [drawing 131] |  |  |  |  |  |  |  | − | − |  |  |  |  | 
21 | CC(NC(=O)C1(c2ccccc2)CCCC1)C1COc2ccccc2O1 (centres unmarked) [drawing 132] |  |  |  |  |  |  |  | + | + |  |  |  |  | 
22 | O=C(N/N=C/c1ccc(-c2ccc(Br)cc2)o1)C1COc2ccccc2O1 (centres unmarked) [drawing 133] |  |  |  |  |  |  |  | + | + |  |  |  |  | 
23 | O=C(N/N=C/c1ccc(-c2cccc(C(F)(F)F)c2)o1)C1COc2ccccc2O1 (centres unmarked) [drawing 134] |  |  |  |  |  |  |  | − | − |  |  |  |  | 
24 | Cc1ccc(NS(=O)(=O)c2ccc3c(c2)Cc2cc(S(=O)(=O)Nc4ccc(C)cc4)ccc2-3)cc1 [drawing 135] |  |  |  |  |  |  |  | + | + |  |  |  |  | 
25 | COc1ccccc1NC1=C/C(=N\S(=O)(=O)c2ccc(Br)cc2)c2ccccc2C1=O [drawing 136] |  |  |  |  |  |  |  | + | + |  |  |  |  | 
26 | C=CC1=C(C)c2cc3[n-]c(cc4[n-]c(cc5nc(cc1n2)C(C)=C5C=C)c(C)c4CCC(=O)O)c(CCC(=O)O)c3C.[Fe+2] [heme, reference compound] |  |  |  |  |  |  |  |  |  | generated light exclusively upon heme exposure | robust luminescence | 100 | 100 | ≤ 30
